As usually defined, the MIC is the lowest concentration that inhibits growth of the organism. One may read the IC50 as the midpoint of a concentration-inhibition curve.

The subject of data set [1] is Candida albicans. As to the kind of experiment: Antifungal activity against Candida albicans assessed as fungal growth inhibition incubated for 24 hrs by absorbance based analysis. It is filed as functional.
In data set [2] the test system is Bipolaris oryzae. Description: Antifungal activity against Cochliobolus miyabeanus assessed as fungal growth inhibition measured after 24 hrs by microscopic analysis. In kind it is functional, organism-based.
Data set [3] deals with Vibrio parahaemolyticus. As to the kind of experiment: Antibacterial activity against Vibrio parahaemolyticus assessed as bacterial growth inhibition incubated for 24 hrs by absorbance based analysis. It is filed as functional.
In data set [4] the test system is Vibrio anguillarum. As to the kind of experiment: Antibacterial activity against Vibrio anguillarum assessed as bacterial growth inhibition incubated for 24 hrs by absorbance based analysis. In kind it is functional.
For data set [5], the system named is Vibrio alginolyticus. As to the kind of experiment: Antibacterial activity against Vibrio alginolyticus assessed as bacterial growth inhibition incubated for 24 hrs by absorbance based analysis. It is filed as functional.
Data set [6] deals with Hepatitis C virus. As to the kind of experiment: Antiviral activity against Hepatitis C virus infected in human Huh7.5 cells assessed as inhibition of viral replication. It is filed as functional, organism-based, Hepacivirus hominis.
Data set [7] deals with Beta-secretase 1 (Homo sapiens, UniProt P56817). As to the kind of experiment: Inhibition of BACE1 (unknown origin) using […] incubated in dark for 1 hr by fluorescence based analysis.
Data set [8] deals with Colletotrichum acutatum. Description: Antifungal activity against Colletotrichum acutatum assessed as fungal growth inhibition by modified broth dilution. It is filed as functional. Background: Dilution methods test growth across graded concentrations, often in twofold steps.
In data set [9] the test system is Sclerotinia sclerotiorum. As to the kind of experiment: Antifungal activity against Sclerotinia sclerotiorum assessed as fungal growth inhibition by modified broth dilution. It is filed as functional.
The subject of data set [10] is Fusarium graminearum. As to the kind of experiment: Antifungal activity against Fusarium graminearum assessed as fungal growth inhibition by modified broth dilution. It is filed as functional.
Data set [11] concerns Botrytis cinerea. Description: Antifungal activity against Botrytis cinerea assessed as fungal growth inhibition by modified broth dilution. It is filed as functional.
Data set [12] relates to Phytophthora nicotianae. As to the kind of experiment: Antifungal activity against Phytophthora parasitica assessed as fungal growth inhibition by modified broth dilution. It is filed as functional.
Data set [13] relates to Verticillium dahliae. Description: Antifungal activity against Verticillium dahliae assessed as fungal growth inhibition by modified broth dilution. It is filed as functional.
The test system of data set [14] is Bipolaris maydis. As to the kind of experiment: Antifungal activity against Bipolaris maydis assessed as fungal growth inhibition by modified broth dilution. In kind it is functional.
Data set [15] has as its system HL-60. Description: Cytotoxicity against human HL-60 cells assessed as cell growth inhibition measured after 24 hrs by MTT assay. In kind it is functional, cell-based. Particulars: HL-60, 24 h. (In general: Formazan colour is commonly taken as a measure of viable cells.)
The subject of data set [16] is THP-1. Description: Cytotoxicity against human THP-1 cells assessed as cell growth inhibition measured after 24 hrs by MTT assay. In kind it is functional, cell-based. The settings on record: THP-1, 24 h.
The nature of data set [17]: Cytotoxicity against human Caco-2 cells assessed as cell growth inhibition measured after 24 hrs by MTT assay. In kind it is toxicity, cell-based.

Molecules are shown by their SMILES. Values after ≈ are worked out from the molar mass of the structure shown.

Sequence of Beta-secretase 1 (P56817 whole entry): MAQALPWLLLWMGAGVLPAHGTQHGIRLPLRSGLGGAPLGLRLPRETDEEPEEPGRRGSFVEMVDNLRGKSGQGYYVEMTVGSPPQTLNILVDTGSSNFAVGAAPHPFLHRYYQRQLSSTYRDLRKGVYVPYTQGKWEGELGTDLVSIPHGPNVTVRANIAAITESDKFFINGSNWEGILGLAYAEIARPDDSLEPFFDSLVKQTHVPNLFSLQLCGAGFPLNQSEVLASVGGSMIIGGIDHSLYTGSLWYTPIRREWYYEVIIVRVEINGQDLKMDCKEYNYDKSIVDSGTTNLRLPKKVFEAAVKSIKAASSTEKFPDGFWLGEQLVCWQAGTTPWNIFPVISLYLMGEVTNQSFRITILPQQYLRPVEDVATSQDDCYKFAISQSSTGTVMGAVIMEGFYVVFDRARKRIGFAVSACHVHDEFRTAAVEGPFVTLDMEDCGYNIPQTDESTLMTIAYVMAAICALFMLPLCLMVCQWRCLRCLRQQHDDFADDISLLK

For `CC(C)(O)[C@@H]1C[C@@H](O)[C@]2(C(=O)O)[C@H](CC[C@@]3(C)[C@H]2CC[C@H]2Cc4c([nH]c5ccccc45)[C@@]23C)O1`, in data set [1], the MIC came to 12.5 µg/mL (≈ 26.7 µM).
`C/C=C(\C)C(=O)[C@H](C)C1=CC(=O)C2=C(O[C@@]3(C)CC[C@H]4OC(C(C)(C)O)CC[C@]4(C)[C@H]3C2)C1=O` (some centres not stated): the IC50 in [2] amounted to 0.1 µg/mL (≈ 0.212 µM).
On to `CC(C)(O)[C@H](O)CC[C@]1(C)[C@@H](O)CC[C@@]2(C)[C@H]1CC[C@H]1Cc3c([nH]c4ccccc34)[C@@]12C`, for which the MIC in data set [3] was found to be 6.3 µM (≈ 2.77 µg/mL); in data set [4], 3.1 µM (≈ 1.36 µg/mL); in data set [5], 3.1 µM (≈ 1.36 µg/mL).
Take `CC1=C(O)C(=O)[C@@]23[C@H](C)CC[C@@H]2[C@H](C)CO[C@]32Oc3cc(O)cc(CO)c3C=C12`: the IC50 in data set [6] stood at 9.5 µM.
In data set [7], `C=C1[C@@]23C(=O)O[C@H](C)[C@@]2(O)C(=O)O[C@]1(C)[C@@H](O)C1=C2CO[C@H]4CC(=O)OC(C)(C)[C@@]24CC[C@@]13C` yielded a concentration for half-maximal inhibition (IC50) of 0.078 µM.
Turning to `CC(C)=CCc1ccc2c3c([nH]c2c1)[C@@]1(C)[C@@H](CC[C@@]2(O)[C@@]45O[C@@H]4[C@H](O)[C@@H](C(C)(C)O)O[C@H]5CC[C@@]21C)C3`, the MIC in data set [8], in [9], in data set [10], in data set [11], in data set [12] and in [13] was 25 µg/mL (≈ 47.9 µM) in each case. In [14], the minimum inhibitory concentration (MIC) amounted to 25 µg/mL (≈ 47.9 µM).
Take `C=C1[C@@]2(C)C[C@H]3[C@@]4(C)C(=CC[C@]3(C)[C@]1(C(=O)OC)C(=O)[C@@](C)(O)C2=O)C(C)(C)C(=O)C[C@H]4O` [BERKELEYTRIONE]: the IC50 in data set [15] was 3.4 µM; in [16], 4.3 µM. Moreover, in [17], the IC50 at 24 h is 10.5 µM.

Source of the values: ChEMBL document CHEMBL5113368, “Meroterpenoids produced by fungi: Occurrence, structural diversity, biological activities, and their molecular targets” (Eur J Med Chem, 2021).
